Common to all, as to assay type: functional
In test [1] the target is Adenylate cyclase (Homo sapiens) (UniProt Q8NFM4+O60503+Q08828+P40145+O60266+O95622+O43306+Q08462+P51828). The test can be described thus: Effect of compound on cellular c-AMP levels by activation of Adenylate cyclase.
Test [2] is described as follows: Ratio of cAMP-elevating activity relative to forskolin.
The subject of test [3] is Rattus norvegicus. The test is described as follows: In vitro inhibitory effect on neutrophil superoxide formation isolated from pentobarbital-anesthetized rats.

Consider seven compounds from ChEMBL document CHEMBL1133882, “Benzyloxybenzaldehyde analogues as novel adenylyl cyclase activators” (Bioorg Med Chem Lett, 2001).

In the case of `C=C[C@@]1(C)CC(=O)[C@]2(O)[C@@]3(C)[C@@H](O)CCC(C)(C)[C@@H]3[C@H](O)[C@H](OC(C)=O)[C@@]2(C)O1`, the Activity (pM (2*10e6*cells)-1) in test [1] is < 1.23. The Ratio in test [2] turned out to be 1.

For the compound `CN1CCN(CCCN2c3ccccc3Sc3ccc(C(F)(F)F)cc32)CC1` [TRIFLUOPERAZINE], the IC50 in test [3] was found to be 14.7 µM.

For `O=Cc1ccc(OCc2ccccc2)cc1`, the Activity (pM (2*10e6*cells)-1) in test [1] worked out at 0.26. Also, in test [2], the Ratio was 0.22. In test [3], this compound registered an IC50 of 14.8 µM.

Compound `CC(=O)c1ccccc1OCc1ccccc1` registered an Activity (pM (2*10e6*cells)-1) in test [1] of 0.26. Besides, the Ratio in test [2] was found to be 0.22. This compound showed an IC50 in test [3] of 12.8 µM.

In test [1], `NC(=O)c1ccccc1OCc1ccccc1` had an Activity (pM (2*10e6*cells)-1) of 0.29. Further, in test [2], the Ratio is 0.24. This compound also gave an IC50 in test [3] of 19.8 µM.

As for `O=Cc1cccc(OCc2ccccc2)c1`, in test [1], the Activity (pM (2*10e6*cells)-1) is 0.56. For the same compound, the Ratio in test [2] came out at 0.46. In addition, the IC50 in test [3] is > 30 µM.

`O=Cc1ccccc1OCc1ccccc1`: the Activity (pM (2*10e6*cells)-1) in test [1] amounted to 1.3. Also, the Ratio in test [2] was 1.1. Further, the IC50 in test [3] was found to be 15.6 µM.
